This note sets out measurements from US9957271B2, “Substituted bicyclic aza-heterocycles and analogues as sirtuin modulators” (GlaxoSmithKline, LLC, priority 2012, dated 2018).

Structures are written as SMILES. A value given as a limit tells only on which side of the number the result lay.

Assay [1] addresses T1, SIRT1 (Homo sapiens, UniProt Q96EB6).
T1 sequence (Q96EB6 1-747): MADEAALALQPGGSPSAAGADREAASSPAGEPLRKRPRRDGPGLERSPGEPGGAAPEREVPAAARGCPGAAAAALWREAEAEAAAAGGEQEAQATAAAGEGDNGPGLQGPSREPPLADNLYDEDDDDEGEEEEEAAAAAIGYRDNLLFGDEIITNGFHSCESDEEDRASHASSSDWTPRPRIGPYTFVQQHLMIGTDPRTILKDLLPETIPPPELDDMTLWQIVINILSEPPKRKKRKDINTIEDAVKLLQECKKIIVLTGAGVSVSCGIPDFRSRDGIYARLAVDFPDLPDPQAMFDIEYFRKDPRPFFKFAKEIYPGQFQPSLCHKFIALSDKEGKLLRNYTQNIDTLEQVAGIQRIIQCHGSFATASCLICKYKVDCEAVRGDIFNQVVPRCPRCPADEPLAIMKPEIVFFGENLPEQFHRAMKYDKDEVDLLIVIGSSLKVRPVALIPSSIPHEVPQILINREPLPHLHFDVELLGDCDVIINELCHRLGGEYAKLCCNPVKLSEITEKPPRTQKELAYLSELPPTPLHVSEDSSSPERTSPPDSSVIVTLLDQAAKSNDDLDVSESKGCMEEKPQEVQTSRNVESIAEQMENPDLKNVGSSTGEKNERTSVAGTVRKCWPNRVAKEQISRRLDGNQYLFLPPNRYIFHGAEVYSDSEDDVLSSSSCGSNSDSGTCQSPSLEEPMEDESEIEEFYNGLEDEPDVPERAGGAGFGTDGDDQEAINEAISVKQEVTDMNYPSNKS
The assay can be described thus: TAMRA based mass spectrometry assay of SIRT1 activity. It counts as biochemical. To be noted: TAMRA assay; for TAMRA EC1.5 (μM): concentration giving 150% activation of SIRT1; for Emax: percent maximum fold activation, read-out: TAMRA % Fold Act. The procedure, abridged: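 Recombinant N-terminal His-tagged human SIRT1 (10 nM, E. coli) incubated 25 min at 25 °C with 0.5 μM 5TMR-labelled p53-derived acetyl-peptide and 120 μM βNAD+ in Tris-acetate pH 8 buffer with DTT and 0.05% BSA, compound at varying concentrations. Stopped with formic acid; deacetylated peptide or OAADPR measured by mass spectrometry relative to DMSO controls.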

In assay [2] the target is T1, SIRT1. The assay can be described thus: Trp mass spectrometry assay of SIRT1 activity. The assay is classed as biochemical. To be noted: Trp assay; for Trp EC1.5 (μM): concentration giving 150% activation of SIRT1; for Emax: percent maximum fold activation, read-out: Trp % Fold Act. The procedure, abridged:
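His-tagged SIRT1 expressed in E. coli BL21(DE3), 10 nM, incubated 25 min at 25° C. with 0.5 μM Ac-RHKK(Ac)W-NH2 peptide and 120 μM βNAD+ in 50 mM HEPES pH 7.5, […], 1 mM DTT, 0.05% BSA; formic acid stop. OAADPR or deacetylated peptide measured by mass spectrometry; EC1.5 and percent maximum activation versus DMSO control.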

As for `Cc1ccc(NC(=O)c2cnn3ccc(-c4ccccc4C(F)(F)F)nc23)nc1` [Compound 618], in assay [1], the “TAMRA EC1.5 (μM)” value is recorded as “A (EC1.5<1 μM)” and the Emax is ≥ 350%. In assay [2], the “Trp EC1.5 (μM)” value is listed as “B (EC1.5 1-25 μM)” and the Emax was ≥ 350%.

In the case of `Cc1ccc(NC(=O)c2cnn3ccc(-c4ccccc4OC(F)(F)F)nc23)cn1` [Compound 621], in assay [1], the “TAMRA EC1.5 (μM)” value is recorded as “A (EC1.5<1 μM)” and the Emax was ≥ 350%. In addition, in assay [2], the “Trp EC1.5 (μM)” value is recorded as “A (EC1.5<1 μM)” and the Emax is ≥ 350%.

Take `Cc1ncccc1NC(=O)c1cnn2ccc(-c3ccccc3OC(F)(F)F)nc12` [Compound 622]: in assay [1], the “TAMRA EC1.5 (μM)” value was “B (EC1.5 1-25 μM)” and the Emax is < 350%. In assay [2], the “Trp EC1.5 (μM)” value is listed as “A (EC1.5<1 μM)” and the Emax was ≥ 350%.

Take `O=C(Nc1cccnn1)c1cnn2ccc(-c3ccccc3OC(F)(F)F)nc12` [Compound 624]: in assay [1], the “TAMRA EC1.5 (μM)” value is “A (EC1.5<1 μM)” and the Emax is ≥ 350%. Besides, in assay [2], the “Trp EC1.5 (μM)” value is “A (EC1.5<1 μM)” and the Emax was ≥ 350%.

On to `COCCOc1nccc(NC(=O)c2cnc3c(C)cc(-c4ccccc4C(F)(F)F)nn23)n1` [Compound 627], for which, in assay [1], the “TAMRA EC1.5 (μM)” value is “A (EC1.5<1 μM)” and the Emax is ≥ 350%. Also, in assay [2], the “Trp EC1.5 (μM)” value is on record as “A (EC1.5<1 μM)” and the Emax was ≥ 350%.

As for `Cc1cccc(NC(=O)c2c(C)nn3ccc(-c4ccccc4C(F)(F)F)nc23)n1` [Compound 628, 2-methyl-N-(6-methylpyridin-2-yl)-5-(2-(trifluoromethyl)phenyl)pyrazolo[1,5-a]pyrimidine-3-carboxamide], in assay [1], the “TAMRA EC1.5 (μM)” value is given as “A (EC1.5<1 μM)” and the Emax was ≥ 350%. Besides, in assay [2], the “Trp EC1.5 (μM)” value is reported as “A (EC1.5<1 μM)” and the Emax is ≥ 350%.

As to `Cc1ncccc1NC(=O)c1cnn2ccc(-c3ccccc3C(F)(F)F)nc12` [Compound 630], in assay [1], the “TAMRA EC1.5 (μM)” value is given as “B (EC1.5 1-25 μM)” and the Emax is < 350%. Moreover, in assay [2], the “Trp EC1.5 (μM)” value is listed as “A (EC1.5<1 μM)” and the Emax was ≥ 350%.

With `Cc1ccc(NC(=O)c2cnn3ccc(-c4ccccc4OC(F)(F)F)nc23)nn1` [Compound 633], in assay [1], the “TAMRA EC1.5 (μM)” value was “A (EC1.5<1 μM)” and the Emax was ≥ 350%. In assay [2], the “Trp EC1.5 (μM)” value is given as “B (EC1.5 1-25 μM)” and the Emax was < 350%.

Turning to `COCCOc1nccc(NC(=O)c2cnc3ccc(-c4ccccc4C(F)(F)F)nn23)n1` [Compound 634], in assay [1], the “TAMRA EC1.5 (μM)” value was “A (EC1.5<1 μM)” and the Emax was ≥ 350%. Also, in assay [2], the “Trp EC1.5 (μM)” value is “A (EC1.5<1 μM)” and the Emax was ≥ 350%.

As to `CCOc1ccc(NC(=O)c2cnn3ccc(-c4ccccc4OC(F)(F)F)nc23)nn1` [Compound 636], in assay [1], the “TAMRA EC1.5 (μM)” value is “A (EC1.5<1 μM)” and the Emax is ≥ 350%. Further, in assay [2], the “Trp EC1.5 (μM)” value is recorded as “B (EC1.5 1-25 μM)” and the Emax is < 350%.

On to `Cc1nccc(NC(=O)c2c(C)nn3ccc(-c4ccccc4C(F)(F)F)nc23)c1C` [Compound 639], for which, in assay [1], the “TAMRA EC1.5 (μM)” value is “A (EC1.5<1 μM)” and the Emax is ≥ 350%. Moreover, in assay [2], the “Trp EC1.5 (μM)” value is listed as “A (EC1.5<1 μM)” and the Emax was ≥ 350%.

On to `Cc1ccncc1NC(=O)c1cnn2ccc(-c3ccccc3C(F)(F)F)nc12` [Compound 640], for which, in assay [1], the “TAMRA EC1.5 (μM)” value is given as “B (EC1.5 1-25 μM)” and the Emax is < 350%. In assay [2], the “Trp EC1.5 (μM)” value is “B (EC1.5 1-25 μM)” and the Emax is < 350%.

For `O=C(Nc1cncc(F)c1)c1cnn2ccc(-c3ccccc3C(F)(F)F)nc12` [Compound 642], in assay [1], the “TAMRA EC1.5 (μM)” value is given as “A (EC1.5<1 μM)” and the Emax was ≥ 350%. Also, in assay [2], the “Trp EC1.5 (μM)” value is on record as “B (EC1.5 1-25 μM)” and the Emax is ≥ 350%.

For `O=C(Nc1cnc2ccc(-c3ccccc3C(F)(F)F)nn12)c1cncc(OC[C@@H](O)CO)n1` [Compound 645], in assay [1], the “TAMRA EC1.5 (μM)” value is “A (EC1.5<1 μM)” and the Emax was ≥ 350%. Also, in assay [2], the “Trp EC1.5 (μM)” value is listed as “A (EC1.5<1 μM)” and the Emax is ≥ 350%.

With `Cc1cc(-c2ccccc2C(F)(F)F)nn2c(C(=O)Nc3nccc(N4CCCC4)n3)cnc12` [Compound 647], in assay [1], the “TAMRA EC1.5 (μM)” value is “A (EC1.5<1 μM)” and the Emax was ≥ 350%. Further, in assay [2], the “Trp EC1.5 (μM)” value was “A (EC1.5<1 μM)” and the Emax was ≥ 350%.

For `Cc1csc(NC(=O)c2c(C)nn3ccc(-c4ccccc4C(F)(F)F)nc23)n1` [Compound 650], in assay [1], the “TAMRA EC1.5 (μM)” value was “A (EC1.5<1 μM)” and the Emax was ≥ 350%. In assay [2], the “Trp EC1.5 (μM)” value is on record as “A (EC1.5<1 μM)” and the Emax was ≥ 350%.

Consider `Cc1cccnc1NC(=O)c1cnn2ccc(-c3ccccc3C(F)(F)F)nc12` [Compound 653], for which, in assay [1], the “TAMRA EC1.5 (μM)” value is given as “C (EC1.5>25 μM)” and the Emax is < 350%. For the same molecule, in assay [2], the “Trp EC1.5 (μM)” value is “B (EC1.5 1-25 μM)” and the Emax is ≥ 350%.

On to `Cc1cncc(NC(=O)c2cnn3ccc(-c4ccccc4C(F)(F)F)nc23)n1` [Compound 654], for which, in assay [1], the “TAMRA EC1.5 (μM)” value was “A (EC1.5<1 μM)” and the Emax is ≥ 350%. In assay [2], the “Trp EC1.5 (μM)” value is “B (EC1.5 1-25 μM)” and the Emax was < 350%.

For the molecule `O=C(Nc1ncc(F)cc1F)c1cnn2ccc(-c3ccccc3C(F)(F)F)nc12` [Compound 656], in assay [1], the “TAMRA EC1.5 (μM)” value is recorded as “B (EC1.5 1-25 μM)” and the Emax was ≥ 350%. In assay [2], the “Trp EC1.5 (μM)” value is “B (EC1.5 1-25 μM)” and the Emax was < 350%.

For the molecule `Cc1cc(NC(=O)c2cnn3ccc(-c4ccccc4OC(F)(F)F)nc23)nc(C)n1` [Compound 659], in assay [1], the “TAMRA EC1.5 (μM)” value is on record as “A (EC1.5<1 μM)” and the Emax is ≥ 350%. In assay [2], the “Trp EC1.5 (μM)” value is “B (EC1.5 1-25 μM)” and the Emax was < 350%.

For the molecule `COCCOc1cc(NC(=O)c2cnc3ccc(-c4ccccc4C(F)(F)F)nn23)ncn1` [Compound 663], in assay [1], the “TAMRA EC1.5 (μM)” value is reported as “A (EC1.5<1 μM)” and the Emax was ≥ 350%. Moreover, in assay [2], the “Trp EC1.5 (μM)” value is on record as “B (EC1.5 1-25 μM)” and the Emax was < 350%.

In the case of `COc1ccc(NC(=O)c2c(C)nc3ccc(-c4ccccc4C(F)(F)F)nn23)nn1` [Compound 665], in assay [1], the “TAMRA EC1.5 (μM)” value is listed as “A (EC1.5<1 μM)” and the Emax was ≥ 350%. Also, in assay [2], the “Trp EC1.5 (μM)” value is reported as “B (EC1.5 1-25 μM)” and the Emax is < 350%.

In the case of `COc1ccnc(NC(=O)c2c(C)nc3ccc(-c4ccccc4C(F)(F)F)nn23)c1` [Compound 671], in assay [1], the “TAMRA EC1.5 (μM)” value is listed as “A (EC1.5<1 μM)” and the Emax is ≥ 350%. For the same molecule, in assay [2], the “Trp EC1.5 (μM)” value was “A (EC1.5<1 μM)” and the Emax is ≥ 350%.

As for `Cc1nc2ccc(-c3ccccc3C(F)(F)F)nn2c1C(=O)Nc1ccnn1C(C)(C)C` [Compound 672], in assay [1], the “TAMRA EC1.5 (μM)” value is listed as “B (EC1.5 1-25 μM)” and the Emax was < 350%. In assay [2], the “Trp EC1.5 (μM)” value is “B (EC1.5 1-25 μM)” and the Emax is < 350%.

Turning to `CCn1nccc1NC(=O)c1c(C)nc2ccc(-c3ccccc3C(F)(F)F)nn12` [Compound 674], in assay [1], the “TAMRA EC1.5 (μM)” value is “B (EC1.5 1-25 μM)” and the Emax is < 350%. For the same molecule, in assay [2], the “Trp EC1.5 (μM)” value is on record as “B (EC1.5 1-25 μM)” and the Emax is ≥ 350%.

As for `Cc1nc2ccc(-c3ccccc3C(F)(F)F)nn2c1C(=O)Nc1ccnn1C(C)C` [Compound 680], in assay [1], the “TAMRA EC1.5 (μM)” value is “B (EC1.5 1-25 μM)” and the Emax was < 350%. Besides, in assay [2], the “Trp EC1.5 (μM)” value is recorded as “B (EC1.5 1-25 μM)” and the Emax is ≥ 350%.

In the case of `Cc1ccnnc1NC(=O)c1cnc2c(C)cc(-c3ccccc3C(F)(F)F)nn12` [Compound 681], in assay [1], the “TAMRA EC1.5 (μM)” value is listed as “C (EC1.5>25 μM)” and the Emax was < 350%. Besides, in assay [2], the “Trp EC1.5 (μM)” value was “B (EC1.5 1-25 μM)” and the Emax was ≥ 350%.

`Cc1ccnc(NC(=O)c2c(C)nn3ccc(-c4ccccc4C(F)(F)F)nc23)c1` [Compound 683]: in assay [1], the “TAMRA EC1.5 (μM)” value is on record as “A (EC1.5<1 μM)” and the Emax was ≥ 350%. In assay [2], the “Trp EC1.5 (μM)” value was “A (EC1.5<1 μM)” and the Emax was ≥ 350%.
